From article PMC4109836, “Analysis of the co-operative interaction between the allosterically regulated proteins GK and GKRP using tryptophan fluorescence” (Biochemical Journal, 2014)

Tests used:
[1] = target: T1, GK-WT (Homo sapiens, UniProt P35557); parameters: method as in ref 4 (a number printed in a supplementary file, which may have a reference list of its own: not looked up in the article's list); details: read-out: ATP Km; cited from earlier work
T1 construct: GST (cleaved yes); made in house; host or cells: Escherichia coli
T1 sequence (P35557 1-465): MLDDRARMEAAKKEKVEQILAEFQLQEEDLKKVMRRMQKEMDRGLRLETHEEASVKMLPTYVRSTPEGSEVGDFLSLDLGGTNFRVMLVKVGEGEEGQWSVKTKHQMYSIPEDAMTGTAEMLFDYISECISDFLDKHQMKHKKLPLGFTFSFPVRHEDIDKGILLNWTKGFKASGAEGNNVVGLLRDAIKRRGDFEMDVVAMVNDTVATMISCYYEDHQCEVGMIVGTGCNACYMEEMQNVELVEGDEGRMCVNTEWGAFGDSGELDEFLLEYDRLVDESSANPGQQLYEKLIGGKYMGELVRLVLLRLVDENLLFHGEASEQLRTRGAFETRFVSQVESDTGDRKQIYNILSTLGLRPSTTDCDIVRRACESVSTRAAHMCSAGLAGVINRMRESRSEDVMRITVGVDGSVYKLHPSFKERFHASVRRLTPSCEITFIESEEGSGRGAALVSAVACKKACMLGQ

[2] = target: T2, GK-W99R/W167F/W257F (Homo sapiens, UniProt P35557, W167F/W257F/W99R); parameters: method as in ref 4 (a number printed in a supplementary file, which may have a reference list of its own: not looked up in the article's list); details: read-out: ATP Km; cited from earlier work
T2 construct: GST (cleaved yes); made in house; host or cells: Escherichia coli
T2 sequence (P35557 1-465 W99R/W167F/W257F): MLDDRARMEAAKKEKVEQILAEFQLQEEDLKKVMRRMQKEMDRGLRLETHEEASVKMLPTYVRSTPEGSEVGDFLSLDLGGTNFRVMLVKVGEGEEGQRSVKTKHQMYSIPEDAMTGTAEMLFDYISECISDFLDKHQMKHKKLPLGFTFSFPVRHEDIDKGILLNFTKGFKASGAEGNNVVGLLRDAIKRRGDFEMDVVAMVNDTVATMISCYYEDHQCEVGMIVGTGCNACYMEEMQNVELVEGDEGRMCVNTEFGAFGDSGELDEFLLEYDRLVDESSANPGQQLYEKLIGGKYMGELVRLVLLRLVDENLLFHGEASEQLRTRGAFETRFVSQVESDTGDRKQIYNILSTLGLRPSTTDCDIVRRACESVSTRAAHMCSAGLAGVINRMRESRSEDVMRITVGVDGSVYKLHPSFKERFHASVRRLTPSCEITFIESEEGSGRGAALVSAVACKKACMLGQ

[3] = target: T3, hGKRP (0.3 μM)–GK-W99R/W167F/W257F (1 μM) complex, GKRP-P446L (Homo sapiens, UniProt P35557+Q14397, P446L/W167F/W257F/W99R); assay: Ligand binding by / disassembly of GKRP-P446L–GK-W99R/W167F/W257F complex by TF of hGKRP; details: ligand titration of 3:1 GK–GKRP-P446L complex, 20°C
T3 construct: FLAG; GST (cleaved yes); made in house; host or cells: Escherichia coli
T3 sequence (Q14397 1-625 P446L): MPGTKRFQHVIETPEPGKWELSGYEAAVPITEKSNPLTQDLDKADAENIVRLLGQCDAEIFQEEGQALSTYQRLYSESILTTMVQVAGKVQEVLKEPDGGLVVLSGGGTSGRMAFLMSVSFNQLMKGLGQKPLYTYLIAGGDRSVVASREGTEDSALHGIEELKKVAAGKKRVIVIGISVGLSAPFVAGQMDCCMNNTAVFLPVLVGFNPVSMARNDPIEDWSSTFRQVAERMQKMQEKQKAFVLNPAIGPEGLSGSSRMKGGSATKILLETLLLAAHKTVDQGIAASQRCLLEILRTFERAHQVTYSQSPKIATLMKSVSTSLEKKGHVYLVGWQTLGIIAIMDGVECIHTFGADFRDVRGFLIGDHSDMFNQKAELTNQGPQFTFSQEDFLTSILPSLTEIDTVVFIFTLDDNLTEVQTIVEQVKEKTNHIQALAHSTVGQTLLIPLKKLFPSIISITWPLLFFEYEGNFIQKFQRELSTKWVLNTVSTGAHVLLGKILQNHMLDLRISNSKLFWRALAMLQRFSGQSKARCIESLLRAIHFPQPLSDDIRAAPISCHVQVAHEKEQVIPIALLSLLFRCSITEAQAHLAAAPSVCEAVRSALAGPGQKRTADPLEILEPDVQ
T3 sequence (P35557 1-465 W99R/W167F/W257F): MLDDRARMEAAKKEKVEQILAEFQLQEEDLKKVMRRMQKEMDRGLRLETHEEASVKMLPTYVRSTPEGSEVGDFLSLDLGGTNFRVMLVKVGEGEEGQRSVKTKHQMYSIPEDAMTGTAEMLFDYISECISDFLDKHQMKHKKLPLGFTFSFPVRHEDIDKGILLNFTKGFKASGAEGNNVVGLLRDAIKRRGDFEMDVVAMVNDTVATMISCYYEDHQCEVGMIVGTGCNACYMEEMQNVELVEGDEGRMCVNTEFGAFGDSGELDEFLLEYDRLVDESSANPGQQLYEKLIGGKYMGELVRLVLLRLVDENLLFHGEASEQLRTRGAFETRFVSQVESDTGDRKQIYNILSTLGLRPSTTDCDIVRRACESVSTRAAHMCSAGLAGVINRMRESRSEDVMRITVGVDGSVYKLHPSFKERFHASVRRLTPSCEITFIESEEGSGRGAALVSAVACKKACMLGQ
Protocol: (§1) Spectra were measured with a Fluorolog-3-21 Jobin-Yvon Spex Instrument SA equipped with a 450 W Xenon lamp for excitation and a cooled R2658P Hamamatsu photomultiplier tube for detection. For all measurements, 90° geometry was employed and 295 nm excitation wavelengths were used to observe fluorescence emission in the 300–500 nm range. For TF, spectra slit width was set to provide a bandpath of 3 nm for excitation and 3 nm for emission. Spectra were corrected for instrumental response using Spex instrument software. A thermostatically controlled cell holder maintained sample temperature at 20°C. A thermocoupler was used to measure sample temperature. The buffer used contained 20 mM phosphate, 50 mM KCl, 1 mM EDTA and 1 mM DTT (pH 7.2).
(§2) Fluorescence data were obtained via the stepwise addition of the appropriate amount of non-fluorescent GK-W99R/W167F/W257F to GKRP in a fluorescence cuvette. […] The change in GKRP protein fluorescence during titration was also measured using time-dependent scans. A manual procedure was used such that a typical titration with 10–12 additions required 20–25 min to perform. The same buffer as described above was routinely used unless stated otherwise. The bandpath was 0.5 nm at 295 nm for excitation and 12 nm at 340 nm for emission. […] For some graphical presentations the linear form of the Hill equation was used: log[F/(Fsat−F)]=H log x−H log KD [46].

[4] = target: T4, GKRP-WT (Homo sapiens, UniProt Q14397); assay: Ligand binding to free GKRP-WT measured by TF of GKRP; details: ligand alone
T4 construct: FLAG; made in house; host or cells: Escherichia coli
T4 sequence (Q14397 1-625): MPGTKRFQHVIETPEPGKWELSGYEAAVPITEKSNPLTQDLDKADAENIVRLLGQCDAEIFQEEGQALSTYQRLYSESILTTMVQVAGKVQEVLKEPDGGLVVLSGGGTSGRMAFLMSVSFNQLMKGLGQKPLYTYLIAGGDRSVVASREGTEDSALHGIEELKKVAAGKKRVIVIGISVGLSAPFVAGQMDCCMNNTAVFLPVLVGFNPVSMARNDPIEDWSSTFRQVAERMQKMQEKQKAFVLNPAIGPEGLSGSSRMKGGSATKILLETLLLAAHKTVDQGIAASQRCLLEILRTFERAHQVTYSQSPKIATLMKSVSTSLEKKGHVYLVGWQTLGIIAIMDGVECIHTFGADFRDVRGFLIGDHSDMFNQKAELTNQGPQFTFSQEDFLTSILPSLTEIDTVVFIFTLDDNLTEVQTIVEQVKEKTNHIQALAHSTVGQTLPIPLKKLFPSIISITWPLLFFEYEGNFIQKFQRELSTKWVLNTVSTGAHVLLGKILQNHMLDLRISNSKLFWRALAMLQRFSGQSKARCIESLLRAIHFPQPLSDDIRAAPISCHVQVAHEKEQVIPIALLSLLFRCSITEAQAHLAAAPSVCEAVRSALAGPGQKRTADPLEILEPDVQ

[5] = target: T5, GKRP-P446L (Homo sapiens, UniProt Q14397, P446L); assay: Ligand binding to free GKRP-P446L measured by TF of GKRP; details: ligand alone
T5 construct: FLAG; made in house; host or cells: Escherichia coli
T5 sequence (Q14397 1-625 P446L): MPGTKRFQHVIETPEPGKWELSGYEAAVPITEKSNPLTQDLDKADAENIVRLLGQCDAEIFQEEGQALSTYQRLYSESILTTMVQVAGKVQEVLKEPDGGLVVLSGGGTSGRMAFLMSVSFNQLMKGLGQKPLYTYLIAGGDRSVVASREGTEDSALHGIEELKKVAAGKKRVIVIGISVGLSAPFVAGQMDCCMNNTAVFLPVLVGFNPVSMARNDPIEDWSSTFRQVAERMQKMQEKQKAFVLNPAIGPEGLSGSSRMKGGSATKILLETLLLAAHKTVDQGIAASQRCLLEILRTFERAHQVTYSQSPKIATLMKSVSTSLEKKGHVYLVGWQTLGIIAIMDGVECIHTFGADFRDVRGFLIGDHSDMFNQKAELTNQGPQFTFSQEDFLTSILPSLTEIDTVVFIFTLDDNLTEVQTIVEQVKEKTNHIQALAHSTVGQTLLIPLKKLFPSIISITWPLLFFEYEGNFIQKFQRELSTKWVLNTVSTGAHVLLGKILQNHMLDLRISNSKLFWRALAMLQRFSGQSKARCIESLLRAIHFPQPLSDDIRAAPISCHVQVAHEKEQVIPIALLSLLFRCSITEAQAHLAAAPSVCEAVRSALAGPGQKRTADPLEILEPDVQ

[6] = target: T6, hGKRP (0.3 μM)–GK-W99R/W167F/W257F (1 μM) complex, GKRP-WT (Homo sapiens, UniProt P35557+Q14397, W167F/W257F/W99R); assay: Ligand binding by / disassembly of GKRP-WT–GK-W99R/W167F/W257F complex by TF of hGKRP; details: ligand titration of 3:1 GK–GKRP-WT complex, 20°C
T6 construct: FLAG; GST (cleaved yes); made in house; host or cells: Escherichia coli
T6 sequence (Q14397 1-625): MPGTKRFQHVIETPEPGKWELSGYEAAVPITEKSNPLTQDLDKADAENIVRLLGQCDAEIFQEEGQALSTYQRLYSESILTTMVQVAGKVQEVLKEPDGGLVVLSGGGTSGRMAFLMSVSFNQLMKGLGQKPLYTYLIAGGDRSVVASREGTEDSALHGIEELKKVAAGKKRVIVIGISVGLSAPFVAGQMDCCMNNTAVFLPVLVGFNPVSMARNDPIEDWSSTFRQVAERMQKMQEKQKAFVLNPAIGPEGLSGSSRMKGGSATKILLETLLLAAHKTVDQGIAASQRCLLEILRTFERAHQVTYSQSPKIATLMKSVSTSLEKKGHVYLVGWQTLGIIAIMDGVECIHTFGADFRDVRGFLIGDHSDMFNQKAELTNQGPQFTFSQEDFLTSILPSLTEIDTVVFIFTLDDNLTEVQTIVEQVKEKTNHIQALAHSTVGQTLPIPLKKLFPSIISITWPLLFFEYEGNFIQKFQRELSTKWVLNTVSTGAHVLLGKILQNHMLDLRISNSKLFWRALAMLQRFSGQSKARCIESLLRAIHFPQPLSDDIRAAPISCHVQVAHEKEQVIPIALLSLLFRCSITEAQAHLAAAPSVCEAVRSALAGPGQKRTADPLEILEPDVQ
T6 sequence (P35557 1-465 W99R/W167F/W257F): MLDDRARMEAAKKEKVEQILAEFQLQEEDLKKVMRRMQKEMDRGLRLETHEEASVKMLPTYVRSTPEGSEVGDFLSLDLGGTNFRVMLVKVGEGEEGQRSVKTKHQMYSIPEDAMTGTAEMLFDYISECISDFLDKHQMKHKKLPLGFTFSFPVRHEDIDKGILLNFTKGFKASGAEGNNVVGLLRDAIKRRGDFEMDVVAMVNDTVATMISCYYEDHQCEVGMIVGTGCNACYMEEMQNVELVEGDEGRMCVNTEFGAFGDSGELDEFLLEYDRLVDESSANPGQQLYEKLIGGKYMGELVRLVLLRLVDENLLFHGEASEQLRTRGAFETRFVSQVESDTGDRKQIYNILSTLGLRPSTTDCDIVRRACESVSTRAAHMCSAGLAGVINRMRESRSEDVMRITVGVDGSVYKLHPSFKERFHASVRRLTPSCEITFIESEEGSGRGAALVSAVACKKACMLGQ
Protocol: as §1, §2

Row | SMILES | Km [1] [µM] | Km [2] [µM] | H [3] | ΔF (relative fluorescence change at 340 nm) ([3]; glucose curve biphasic (two phases)) | Kd ([3]; read-out: Kd (apparent)) [µM] | H (Hill number) ([4]; 0.3 μM GKRP-WT, 20°C) | ΔF (relative fluorescence change at 340 nm) ([4]; 0.3 μM GKRP-WT, 20°C) | Kd ([4]; 0.3 μM GKRP-WT, 20°C, read-out: S0.5) [µM] | effect on the TF signal of GKRP-WT [4] | H (Hill number) ([5]; 0.3 μM GKRP-P446L, 20°C) | ΔF (relative fluorescence change at 340 nm) ([5]; 0.3 μM GKRP-P446L, 20°C) | Kd ([5]; 0.3 μM GKRP-P446L, 20°C, read-out: S0.5) [µM] | effect on the TF signal of GKRP-P446L [5] | H [6] | ΔF (relative fluorescence change at 340 nm) [6] | Kd ([6]; read-out: Kd (apparent)) [µM]
1 | Nc1ncnc2c1ncn2[C@@H]1O[C@H](COP(=O)(O)OP(=O)(O)OP(=O)(O)O)[C@@H](O)[C@H]1O [ATP] | 490 | 1960 | – | – | – | – | – | – | – | – | – | – | – | – | – | –
2 | O=C(COP(=O)([O-])[O-])[C@@H](O)[C@H](O)[C@H](O)CO.[Na+].[Na+] [F1P, D-fructose 1-phosphate sodium salt] | – | – | 1 | −0.095 | 298 | 1 | −0.04 | 65 | decrease | 1 | −0.08 | 139 | decrease | 1 | −0.086 | 127
